This is an account of results in patent publication US12012415B2, “Compositions and methods for the diagnosis, treatment and prevention of neoplastic and neurological disorders” (AscentGene, Inc., priority 2018, dated 2024).

Structures are written as SMILES.

The subject of assay [1] is human non-small cell lung cancer cell line H841. The assay can be described thus: Cell growth of NSCLC cell lines. The format is cell-based. To be noted: cell growth rate from number of live cells. As for the experimental part: Rat glioblastoma cell lines C6 (A) and human non-small cell lung cancer cell line H841 (B) were grown in the proper medium and treated with different concentration of drug candidate AG-1031 (P) and AG-1503 (#3). Cell growth rate was calculated based on the number of live cells as compared to concentration in M of selected small molecules of the invention (see FIGS. 6A and 6B).

Assay [2] concerns Aβ1-42-induced cognitive impairments. As to the kind of experiment: Open field test in Aβ1-42 Alzheimer's disease rat model. The format is in vivo, rats. To be noted: for number of entries into the center zone: 1 mg/kg i.v. daily 14 days, vs Aβ1-42 group; for total distance / traveling speed: open field, between the four groups. The protocol:
(§1) Aβ1-42 (Sigma-Aldrich, St. Louis, MO, USA;) was dissolved in double-distilled water at the concentration of 5 μg/μl, and incubated at 37° C. for one week before surgery. The rats were randomly divided into four groups as Sham (n=8), Sham+AG-1601 (n=8), Aβ1-42 (n=8) and Aβ1-42+AG-1601 (n=8). The Alzheimer's disease rat models were established by intracerebroventricular (i.c.v.) injection of Aβ1-42 aggregates. The animals were anesthetized with intraperitoneal injection of pentobarbital sodium (50 mg/kg) and placed in a stereotaxic apparatus (Narishige, Japan). The head skin of the rat was opened and two small holes were drilled on both sides of skull following the coordinates: 0.8 mm posterior to bregma, +1.4 mm lateral to sagittal suture, 4.0 mm beneath the surface of brain. Aβ1-42 (2.0 μl per side) was injected bilaterally into the lateral ventricles through micro-syringe. The needle was taken out after 5 minutes of the injection to ensure the aggregates were infused completely. Rats in the Sham group underwent the same operational process, but same volumes of double-distilled water were injected instead of Aβ1-42. After surgery, all rats were injected with penicillin (100,000 U) in the hindquarter muscle to prevent infection. The animals of Sham+AG-1601 and Aβ1-42+AG-1601 groups were intravenous injection with AG-1601 (1 mg/kg), while the same volume vehicle was implemented for the other groups every day for 14 days after one week of the postoperative recovery.
The open field test was carried out to evaluate locomotor activity and exploratory behavior. This test was conducted as described previously with little modifications (Sugita et al., 2015). The open field test consists of a circular apparatus (80 cm in diameter, 30 cm high). The circular apparatus was divided into the center zone (30 cm in diameter in the middle of the arena) and the concentric outer circle zone. Rats were placed individually in the outer circle of the apparatus and allowed to explore freely for 5 min. The path of each rat was tracked by a camera-driven tracker system (Ethovision2.0, Noldus, Wagenigen, Netherlands). The number of entries into the center zone, the total distance and the traveling speed during the testing were analyzed.

Assay [3] relates to dendritic spines of the CA1 pyramidal cells. The assay can be described thus: Golgi-Cox staining of dendritic spines, Aβ1-42 AD rat model. The format is in vivo, rats. To be noted: vs Aβ1-42 group. As for the experimental part:
as §1, with “Rats in the Sham group underwent the same operational process, but same volumes of double-distilled water were injected instead of Aβ1-42. After surgery, all rats were injected with penicillin (100,000 U) in the hindquarter muscle to prevent infection. The animals of Sham+AG-1601 and Aβ1-42+AG-1601 groups were intravenous injection with AG-1601 (1 mg/kg), while the same volume vehicle was implemented for the other groups every day for 14 days after one week of the postoperative recovery.” left out
Golgi-Cox staining method that performed according to the previously described protocol was used to determine the density of apical dendritic spines of the CA1 pyramidal cells in this study (Zhang et al., 2016). […] Six neurons in the CA1 region of hippocampus per animal were analyzed. The average dendritic spine density per 10 μm of dendritic length was calculated for each animal.

For assay [4], the system named is U87 cells. As to the kind of experiment: Cell viability, combination with TMZ in U87 cells. The format is cell-based, human. The protocol:
Human glioma cell lines of U251, SF539, SF295 were obtained from NCI/DTP and U87 was obtained from ATCC. U251, SF539, and SF295 cells were grown in RPMI (Gibco) medium; U87 cells were grown in EMEM medium (ATCC), all the cells culture media containing 10% FBS and 100 unit/ml of Penicillin-Streptomycin, and cells were incubated in a 37 °C/5% CO2 humidified hood. One day before chemical compounds treatment, four kinds of cells U251, SF539, SF295, and U87 were seeded in 96-well plates at 10,000 cells/well (100 μl) with triplicate. The culture medium was removed and cells were treated with a series different concentration of AG1601/in correspond fresh media. Following an additional incubation of 48 hours at 37° C./5% CO2, cells proliferation assay was performed with Cell Counting Kit-8 (Dojindo Laboratories, #CK04), added 10 μl of reagent to the cells in each well after replacing with 100 μl of fresh media, mix well, following an additional 2 to 3 hours incubation at 37° C./5% CO2, read wavelengths of OD450 nm in a 96-well plate reader (Victor 2, 1420 Multilabel counter), data analysis were performed with Excel and it is platted as relative mean OD450 nm+/−standard error of the mean.
Cells were treated with indicated content of AG-1601 for 48 hours, then followed by performance of cell viability assays. […]

For assay [5], the system named is T98G cells. As to the kind of experiment: Cell viability in TMZ-resistant T98G cells. The format is cell-based. Conditions: TMZ plus AG-1601. As for the experimental part: Cells were treated with indicated content of AG-1601 for 48 hours, then followed by performance of cell viability assays. Efficacy of AG-1601 in rat cell (see FIGS. 24A and B), of AG-1601 in human glioma cell see FIGS. 25A and 25B), different batches of AG-1601 in C6 and U251 cells (see FIGS. 26A and 26B), of AG-1601 in C6 and U87 cells (see FIGS. 27A and 27B), of AG-1601, TMZ, and Carmustine in U251 cells (see FIGS. 28A and 28B), and of AG-1601, TMZ, and Carmustine in U87 cells (see FIGS. 29A and 29B). […] Cell viability was determined in T98G cell and U251 cell after treatment with DMSO, TMZ, AG-1601 and TMZ plus AG-1601 (FIG. 30).

In the case of `C=CC1=C(C)c2cc3[nH]c(cc4nc(cc5[nH]c(cc1n2)c(C)c5C=C)C(C)=C4CCC(=O)O)c(CCC(=O)NCCCc1ccccc1)c3C` [AG-1601, 3-(2,8,13,18-tetramethyl-3-(3-oxo-3-((3-phenylpropyl)amino)propyl)-12,17-divinylporphyrin-7-yl)propanoic acid], in assay [1], the “inhibition of growth of NSCLC cell lines” value is “inhibiting growth of some NSCLC cell lines”. Moreover, in assay [2], the “number of entries into the center zone” value is reported as “increased dramatically”, the total distance entry is “no significant effect” and the traveling speed result is reported as “no significant effect”. Further, in assay [2] (listed as AG-1061), the “number of entries into the center zone” value is “increased significantly”, the total distance result is recorded as “no significant difference” and the traveling speed entry is “no significant difference”. Moreover, the “density of dendritic spines in the CA1 region” value in assay [3] was “marked reversal of the dendritic spine loss”. In assay [4], the “potentiation of the effect of TMZ” value was “potentiates the effect of TMZ”. For the same compound, the “effect on TMZ-resistance” value in assay [5] is on record as “Overcomes the Effect of TMZ-resistance”.
